For one data set, the system named is S. aureus (ATCC 12600). Nature of the data set: Minimal microbicidal concentration (MMC99) assay. The data set is classed as cell-based, Staphylococcus aureus. On the procedure:
(§1) All the synthesised peptides were tested for their in vitro microbicidal activity against S. aureus (American Type Culture Collection (ATCC) 12600) and P. aeruginosa (ATCC 15442) using a minimal microbicidal concentration (MMC) assay as previously described (Haversen et al. [2010]). Bacteria were cultured in 3.7% brain heart infusion (BHI) broth (Difco, BD Diagnostics, Franklin Lakes, NJ) on a shaker at 250 rpm overnight at 37°C. The culture was diluted 1:10 in fresh 3.7% BHI and incubated for two additional hours to reach log-phase growth. The bacteria were pelleted by centrifugation at 900 × g and suspended in 0.037% BHI to a concentration of 10^7 CFU/mL, estimated by measuring optical density at 600 nm (OD600). To investigate the influence of physiological conditions on microbicidal effect of the peptides, four different assay media were used: 0.037% BHI, 0.037% BHI supplemented with 85 or 150 mM sodium chloride (NaCl), and 50% heat inactivated simulated wound fluid (h.i. SWF) composed of a 50:50 mixture of 0.1% peptone (Oxoid, Basingstoke, UK) in 150 mM NaCl and fetal bovine serum (FBS; PAA Laboratories GmbH, Pasching, Austria), diluted two times in ultra pure water. The peptides were serially diluted by twofold steps from 200 to 1.56 mg/L in the assay media used, and 100 μL of the peptide solutions were mixed with 5 μL bacterial suspensions in a 96 well plate (Nunc, Roskilde, Denmark) and incubated at 37°C for two hours. An aliquot of 5 μL from each well was aspirated and added as drops onto blood agar plates (Columbia agar; Oxoid, Basingstoke, UK) supplemented with 5% defibrinated horse blood (Swedish National Veterinary Institute (SVA), Uppsala, Sweden), and the plates were incubated overnight at 37°C. All samples were processed as duplicates. The minimal test compound concentration causing ≥99% reduction of bacteria was defined as the MMC99. The concentration of the bacterial suspension used in the assay was confirmed by viable count estimation on blood agar plates (Oxoid).
(§2) CEN1 HC was further screened for microbicidal activity against a panel of microbial strains using the MMC99 assay, as described above, except using only two different assay media; 0.037% BHI and 50% h.i. SWF. The following microbial strains were tested for sensitivity: S. aureus (ATCC 12600), MRSA (ATCC 33591), Staphylococcus epidermidis (ATCC 12228), Streptococcus pyogenes (ATCC 12344), Propionibacterium acnes (ATCC 6919) Escherichia coli (ATCC 11775), P. aeruginosa (ATCC 15442), Klebsiella pneumoniae (Culture collection, University of Gothenburg (CCUG) 59413, clinical isolate resistant to penicillins, cephalosporins, aztreonam and carbapenems, with the reference strain ATCC 13883), Acinetobacter baumannii (CCUG 58437, clinical isolate resistant to tobramycin, trimsulfa, ciprofloxacin, cefotaxim, ceftazidim, meropenem, pipera/tazobactam, with the reference strain ATCC 19606) and the yeast strain Candida albicans (ATCC 64549). Mupirocin (GlaxoSmithKline) and fusidic acid (LEO Pharma) were used as comparative control antibiotics.

Data set [1] relates to P. aeruginosa (ATCC 15442). Nature of the data set: Minimal microbicidal concentration (MMC99) assay. The class given is cell-based, Pseudomonas aeruginosa. As to the method: as §1, §2
The subject of data set [2] is TNF-α secretion from THP-1 cells. As to the kind of experiment: Inhibition of TNF-α secretion from LPS-stimulated THP-1 derived macrophages (ELISA). The class given is cell-based, human. Particulars: PMA-differentiated THP-1 cells, LPS 0.1 ng/mL, peptide added 30 min after LPS, 6 h, triplicate, IC50 ± SEM, 4-parameter fit (Origin). As to the method:
The human monocytic cell line THP-1 (ATCC TIB-202) was cultured in RPMI 1640 medium (PAA Laboratories GmbH) supplemented with 10% FBS (PAA Laboratories GmbH), 1 mM sodium pyruvate (Sigma-Aldrich, St. Louis, MO), and 20 mM 4-(2-hydroxyethyl)-1-piperazineethanesulfonic acid (HEPES; PAA Laboratories GmbH). The cell density was adjusted to 10^6 cells/mL and 100 μL of the cell suspension was added to each well of 96 well plates (Sarstedt, Nümbrecht, Germany). The cells were treated with 10 ng/mL phorbol 12-myristate 13-acetate (PMA; Sigma-Aldrich) to differentiate the monocytes into macrophage-like cells. After 48 h, the cells were stimulated by adding 0.1 ng/mL LPS into the medium specified above, except that 10% FBS was replaced with 5% h.i. FBS. The LPS concentration used was selected based on in vitro titration experiments to give a close to maximum release of cytokines into the cell culture medium over a period of six hours (data not shown). The indicated concentrations of the peptides were added 30 min after addition of LPS. After six hours of incubation, the plates were centrifuged for six minutes at 400 × g and the supernatants were collected and kept frozen at −20°C until analysed for TNF-α and IL-6 production. The cytokine levels were analysed using enzyme-linked immunosorbent assay (ELISA; R&D Systems, Minneapolis, MN).
A general note: ELISA stands for enzyme-linked immunosorbent assay.

For data set [3] the following is noted: synthesis and antimicrobial testing of the different monomers; ref Li et al. [2010]; cited from earlier work. The text has this:
Invertebrates are proving to be a rich source of AMPs, possibly because of their more pronounced reliance on innate immune functions in their defence against microbial pathogens compared to vertebrates. Many of the peptides isolated from marine species are structurally unique, display significant biological activities and are therefore expected to be useful drug leads (Sperstad et al. [2011]). In a previous study, we detected broad-spectrum antibacterial activity in coelomocyte (blood cell) extracts of the green sea urchin, S. droebachiensis (Haug et al. [2002]). Subsequently, an AMP named cen ...

A further data set concerns MRSA (ATCC 33591). The data set is classed as in vivo. Particulars: rat excision wound model (MRSA or P. aeruginosa infected), topical application, experimental period. The source says:
The ability of CEN1 HC and CEN1 HC (Ser) to reduce bacterial counts was estimated in an excision wound model in rat designed based on previously published studies (Gisby and Bryant [2000]; McRipley and Whitney [1976]; Rittenhouse et al. [2006]; Saymen et al. [1972]). Briefly, female Sprague–Dawley rats (200–250 g, Charles River Laboratories, Sulzfeldt, Germany) were housed at the Laboratory of Experimental Biomedicine, Gothenburg, Sweden. They were kept in a 12-h light–dark cycle and were cared for in accordance with regulations for the protection of laboratory animals. All animal experiments were performed after prior approval from the local Ethics Committee for Animal Studies at the Administrative Court of Appeals in Gothenburg, Sweden. The rats were acclimatised in cages for a minimum of five days before surgery, with four rats in each cage. They had free access to water and pellets (Lab For, Lantmännen, Sweden). The rats were anaesthetised during the whole experiment and the anaesthesia was induced by an intra-peritoneal injection of a mixture of fentanyl (272 μg/kg; B. Braun Melsungen AG, Melsungen, Germany) and medetomidine hydrochloride (545 μg/kg; Domitor, Orion Pharma Animal Health AB, Sollentuna, Sweden). The backs of the rats were shaved and swabbed with 70% chlorhexidine alcohol (Fresenius Kabi AB, Uppsala, Sweden). […] Plates containing 30–300 CFU were counted. […]

Where [4] appears, read: Table 2 screen, medium 0.037% BHI + 85 mM NaCl, 2 h at 37°C, up to 200 mg/L, duplicates, maximum of at least two independent experiments.
Setting [5] is: Table 2 screen, medium 0.037% BHI + 150 mM NaCl, 2 h at 37°C, up to 200 mg/L, duplicates, maximum of at least two independent experiments.
Where [6] appears, read: Table 2 screen, medium 50% heat inactivated simulated wound fluid, 2 h at 37°C, up to 200 mg/L, duplicates, maximum of at least two independent experiments.

These results are taken from PMC3561256, “Anti-infectious and anti-inflammatory effects of peptide fragments sequentially derived from the antimicrobial peptide centrocin 1 isolated from the green sea urchin, Strongylocentrotus droebachiensis” (AMB Express, 2012).

Where “and” joins values, the source holds several entries; their conditions need not be identical. Identical values can stand only once. No end group written: not given here.

Regarding “GW(Br)FKKTFHKVSHAVKSGIHAGQRGCSALGF [CEN1 HC-Br, heavy chain of centrocin 1, 30 residues, brominated tryptophan in position 2]”, the “S. aureus MMC99, 0.037% BHI + 85 mM NaCl” value in the data set on S. aureus (ATCC 12600) (setting [4]) was 25 mg/L. Moreover, the “S. aureus MMC99, 0.037% BHI + 150 mM NaCl” value in the data set on S. aureus (ATCC 12600) (setting [5]) is recorded as 50 mg/L. In the data set with S. aureus (ATCC 12600) (Table 2 screen, medium 0.037% BHI, ≥99% reduction of bacteria, 2 h at 37°C, tested up to 200 mg/L, duplicates, maximum value from at least two independent experiments), the “S. aureus MMC99, 0.037% BHI” value is 25 mg/L. Further, in the data set with S. aureus (ATCC 12600) (setting [6]), the “S. aureus MMC99, 50% SWF” value was 25.0 to 50.0 mg/L and 50 mg/L. In addition, the “S. aureus MMC99, 0.037% BHI with 85 mM or 150 mM NaCl” value with S. aureus (ATCC 12600) (text summary over both NaCl concentrations of Table 2a) lay within 25.0 to 50.0 mg/L. Besides, the “P. aeruginosa MMC99, 0.037% BHI + 85 mM NaCl” value in data set [1] (setting [4]) is reported as 12.5 mg/L. In data set [1] (setting [5]), the “P. aeruginosa MMC99, 0.037% BHI + 150 mM NaCl” value was 25 mg/L. The “P. aeruginosa MMC99, 0.037% BHI” value in data set [1] (Table 2 screen, medium 0.037% BHI, 2 h at 37°C, up to 200 mg/L, duplicates, maximum of at least two independent experiments) amounted to 25 mg/L. Also, the “P. aeruginosa MMC99, 50% SWF” value in data set [1] (setting [6]) was 100.0 mg/L and 100 mg/L. Besides, the “P. aeruginosa MMC99, 0.037% BHI with 85 mM or 150 mM NaCl” value in data set [1] (text summary over both NaCl concentrations of Table 2b, compared to 0.037% BHI only) is recorded as “no reduction in effect”. In addition, the “IC50, TNF-α secretion” value in data set [2] is recorded as about 4.0 mg/L. The “Antimicrobial activity of the synthesised monomers of centrocin 1” value in data set [3] is on record as “equally active as the original dimeric peptide”.
Take “GWFKKTFHKVSHAVKSGIHAGQRGCSALGF [CEN1 HC]”: the “Animal death or local reactions in connection to the application of the test article” value in the data set on MRSA (ATCC 33591) is “No animal death or local reactions”.
